# Experimental data published in PubChem BioAssay (NCI).
#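 Compound exposure: 48 hours, 5 concentrations, 96-well plates. GI50 is the concentration that inhibits growth by half. The concentration for full growth arrest is given as TGI.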
# Key:
# Experiment in all cases: inhibition of tumour cell growth, NCI panel, 48 h
# SF-295 CNS = test system: SF-295 CNS
# U251 CNS = test system: U251 CNS
# HCC-2998 colon = test system: HCC-2998 colon
# MDA-MB-231 breast = test system: MDA-MB-231 breast
# TK-10 renal = test system: TK-10 renal
# A549 NSCLC = test system: A549 NSCLC
# SK-MEL-5 melanoma = test system: SK-MEL-5 melanoma
# K-562 leukemia = test system: K-562 leukemia
# SNB-19 CNS = test system: SNB-19 CNS
# OVCAR-4 ovarian = test system: OVCAR-4 ovarian
# A498 renal = test system: A498 renal
# HS 578T breast = test system: HS 578T breast
# CCRF-CEM leukemia = test system: CCRF-CEM leukemia
# SR leukemia = test system: SR leukemia
# SK-MEL-28 melanoma = test system: SK-MEL-28 melanoma
# MALME-3M melanoma = test system: MALME-3M melanoma
# RXF 393 renal = test system: RXF 393 renal
# SW-620 colon = test system: SW-620 colon
# EKVX NSCLC = test system: EKVX NSCLC
# UO-31 renal = test system: UO-31 renal
# T-47D breast = test system: T-47D breast
# SK-OV-3 ovarian = test system: SK-OV-3 ovarian
# HL-60(TB) leukemia = test system: HL-60(TB) leukemia
# NCI/ADR-RES ovarian = test system: NCI/ADR-RES ovarian
# M14 melanoma = test system: M14 melanoma
# NCI-H226 lung = test system: NCI-H226 lung
# OVCAR-3 ovarian = test system: OVCAR-3 ovarian
# SF-268 CNS = test system: SF-268 CNS
# HCT-15 colon = test system: HCT-15 colon
structure (smiles),measurement,setting,value
c1cc(N2CCCC2)c2nc(-c3[nH]ncc3Nc3ncnc4[nH]ccc34)[nH]c2c1,GI50,SF-295 CNS,44.1 nM
same,TGI,SF-295 CNS,337 nM
same,GI50,U251 CNS,47.4 nM
same,TGI,U251 CNS,838 nM
same,GI50,HCC-2998 colon,176 nM
same,TGI,HCC-2998 colon,942 nM
same,GI50,MDA-MB-231 breast,62.8 nM
same,TGI,MDA-MB-231 breast,418 nM
same,GI50,TK-10 renal,323 nM
same,TGI,TK-10 renal,1380 nM
same,GI50,A549 NSCLC,80.6 nM
same,TGI,A549 NSCLC,455 nM
same,GI50,SK-MEL-5 melanoma,105 nM
same,TGI,SK-MEL-5 melanoma,424 nM
same,GI50,K-562 leukemia,< 11.5 nM
same,TGI,K-562 leukemia,> 35000 nM
same,GI50,SNB-19 CNS,96.2 nM
same,TGI,SNB-19 CNS,1580 nM
same,GI50,OVCAR-4 ovarian,146 nM
same,TGI,OVCAR-4 ovarian,1140 nM
same,GI50,A498 renal,20.2 nM
same,TGI,A498 renal,55 nM
same,TGI,HS 578T breast,77.1 nM
same,GI50,CCRF-CEM leukemia,28 nM
same,TGI,CCRF-CEM leukemia,1310 nM
same,GI50,SR leukemia,36.2 nM
same,TGI,SR leukemia,26700 nM
same,GI50,SK-MEL-28 melanoma,99.2 nM
same,TGI,SK-MEL-28 melanoma,575 nM
same,GI50,MALME-3M melanoma,160 nM
same,TGI,MALME-3M melanoma,800 nM
same,GI50,RXF 393 renal,22.8 nM
same,TGI,RXF 393 renal,92.9 nM
same,GI50,SW-620 colon,68.4 nM
same,TGI,SW-620 colon,548 nM
same,GI50,EKVX NSCLC,151 nM
same,TGI,EKVX NSCLC,1700 nM
same,GI50,UO-31 renal,27.8 nM
same,TGI,UO-31 renal,267 nM
same,GI50,T-47D breast,139 nM
same,TGI,T-47D breast,5970 nM
same,GI50,SK-OV-3 ovarian,27.6 nM
same,TGI,SK-OV-3 ovarian,586 nM
same,GI50,HL-60(TB) leukemia,32.6 nM
same,TGI,HL-60(TB) leukemia,91.6 nM
same,GI50,NCI/ADR-RES ovarian,141 nM
same,TGI,NCI/ADR-RES ovarian,1260 nM
same,GI50,M14 melanoma,49.5 nM
same,TGI,M14 melanoma,483 nM
same,GI50,NCI-H226 lung,41 nM
same,TGI,NCI-H226 lung,204 nM
same,GI50,OVCAR-3 ovarian,44.1 nM
same,TGI,OVCAR-3 ovarian,663 nM
same,GI50,SF-268 CNS,108 nM
same,TGI,SF-268 CNS,569 nM
same,GI50,HCT-15 colon,76.5 nM
same,TGI,HCT-15 colon,584 nM
